{"source": "patent US20140079636A1", "about": "“TARGETED THERAPEUTICS” (priority 2012, published 2014)", "assay": "Tissue distribution of SDC-TRAPs in plasma and tumor (Example 14 extraction procedure)", "details": "in vivo; Tissue Distribution Data for SDC-TRAP-0076; Time 6 h; read-out: Tumor/Plasma Ratio", "protocol": "In order to test the ability SDC-TRAP molecules of the invention to be specifically targeted to tumor cells, the following experiment was performed.\nUsing the 10 mM stock solutions of the HDC compound and its Hsp90i and drug conjugate in DMSO, spiking solutions were prepared at 0.025, 0.05, 0.1, 0.5, 1, 5, 10, 50, 100, 250, and 500 μM in DMSO. 5 μL of each spiking solution was added to a 96-deep well plate. 50 μL of matrix (plasma thawed over ice or homogenized blank tumor).\nQuality control standards were prepared from 5 μL of 0.1, 1, and 10 μM calibration standard spiking solution added in triplicate into 96-deep well plate and adding 50 μL of matrix (plasma or homogenized tumor).\nTo prepare test samples, test plasma was diluted as needed using blank plasma. Tumor samples were pulverized in liquid nitrogen, weighed, and homogenized in PBS at 5× volume to sample weight. 50 μL of unknown plasma or homogenized tumor sample was mixed with 5 μL of DMSO. The samples were extracted by precipitating calibration standards, QC standards, and unknown samples with 200 μL of internal standard solution. The samples were mixed by vortex at room temperature for approximately 1.5 minutes, then centrifuge at 2-8° C. 150 μL of supernatant was collected and 25 μL of water added. Samples were mixed and analyzed by LC-MS/MS.", "data": [{"molecule": "CCNC(=O)c1nnc(-c2cc(C(C)C)c(O)cc2O)n1-c1ccc(CN2CCC(C(=O)N3CCC(C(=O)OC4(CC)C(=O)OCc5c4cc4n(c5=O)Cc5c-4nc4ccc(O)cc4c5CC)CC3)CC2)cc1", "note": "(stereo not shown) [SDC-TRAP-0076, 4,11-diethyl-9-hydroxy-3,14-dioxo-3,4,12,14-tetrahydro-1H-pyrano[3′,4′:6,7]indolizino[1,2-b]quinolin-4-yl 1-(1-(4-(3-(2,4-dihydroxy-5-isopropylphenyl)-5-(ethylcarbamoyl)-4H-1,2,4-triazol-4-yl)benzyl)piperidine-4-carbonyl)piperidine-4-carboxylate]", "values": [{"measurement": "Kp", "result": 7.25}]}]}
